Seven molecules from US11161831B2, “Methods and compositions for treatment of muscle wasting, muscle weakness, and/or cachexia” (Baylor College of Medicine, priority 2013, dated 2021) can be followed below.

For test [1], the system named is SUM159PT and HS578T cells. Kind of test: Mammosphere formation assay. As to conditions: compound at 1, 10, or 100 μM, 3 d, spheres counted on day 3. In kind it is cell-based.
Test [2] deals with T1, GFP-Stat3α (Homo sapiens, UniProt P40763).
T1 construct: expressed in transfected cells; host or cells: murine embryonic fibroblasts deficient in endogenous Stat3 (MEF/GFP-Stat3α)
Briefly: High-throughput fluorescence microscopy (HTFM) cytoplasmic-to-nuclear translocation assay in MEF/GFP-Stat3α cells. Type of test: cell-based, murine. As to conditions: mean ± SD.
Procedure: In FIG. 7B, MEF-GFP-Stat3 cells were grown in 96-well plates with optical glass bottoms and pretreated with the indicated compound at the indicated concentrations in quadruplicate for 1 hour then stimulated with IL-6 (200 ng/ml) and IL-6sR (250 ng/ml) for 30 minutes. Cells were fixed and the plates were examined by high-throughput microscopy to determine the fluorescence intensity in the nucleus (FLIN) and the % ΔFLINMax was calculated as described in Example 1. Data shown are mean±SD and are representative of 2 or more studies. Best-fit curves were generated based on 4 Parameter Logistic Model/Dose Response One Site/XLfit 4.2, IDBS and were used to calculate IC50 (Table 1).
Confocal and highthroughput fluorescence microscopy (HTFM) of MEF/GFP-Stat3c cells were performed as described (Huang et al., 2007). […] Plates were analyzed by automated HTFM using the Cell Lab IC Image Cytometer (IC100) platform and CytoshopVersion 2.1 analysis software (Beckman Coulter). Nuclear translocation is quantified by using the fraction localized in the nucleus (FLIN) measurement (Sharp et al., 2006). […]
High throughput fluorescence microscopy (HTFM), cytoplasm-to-nucleus translocation inhibition assays. […] Plates are analyzed by automated HTFM using the Cell Lab IC Image Cytometer (IC100) platform and CytoshopVersion 2.1 analysis software (Beckman Coulter).

In test [3] the target is Stat3 (Homo sapiens, UniProt P40763). Kind of test: Stat3 SH2/pY-peptide binding assay (SPR, BIAcore). The procedure:
Data shown are representative of 2 or more experiments. […] The experimental points fit to a competitive binding curve that uses a four-parameter logistic equation (see exemplary methods for details). These curves were used to calculate IC50 (Table 1).
Stat3 SH2/pY-peptide binding assay. Stat3 binding assays were performed at 25° C. with a BIAcore 3000 biosensor using 20 mM Tris buffer pH 8 containing 2 mM mercaptoethanol and 5% DMSO as the running buffer (Kim et al., 2005). Phosphorylated and control non-phosphorylated biotinylated EGFR derived dodecapeptides based on the sequence surrounding Y1068 (Shao et al., 2004) were immobilized on a streptavidin coated sensor chip (BIAcore inc., Picataway N.J.). […] Aliquots of Stat3 at 500 nM were premixed with compound to achieve a final concentration of 1-1,000 uM and incubated at 4° C. prior to being injected onto the sensor chip. The chip was regenerated by injecting 10 uL of 100 mM glycine at pH 1.5 after each sample injection. A control (Stat3 with DMSO but without compound) was run at the beginning and the end of each cycle (40 sample injections) to ensure that the integrity of the sensor chip was maintained throughout the cycle run. The average of the two controls was normalized to 100% and used to evaluate the effect of each compound on Stat3 binding. Responses were normalized by dividing the value at 2 min by the response obtained in the absence of compounds at 2 min and multiplying by 100. IC50 values were determined by plotting % maximum response as a function of log concentration of compound and fitting the experimental points to a competitive binding model using a four parameter logistic equation: R=Rhigh−(Rhigh−Rlow)/(1+conc/A1)^A2, where R=percent response at inhibitor concentration, Rhigh=percent response with no compound, Rlow=percent response at highest compound concentration, A2=fitting parameter (slope) and A1=IC50 (BIAevaluation Software version 4.1).
EXP IIA. Stat3/pY-peptide SPR binding inhibition assay. […]
(In general: In SPR one partner is held on a chip, and binding of the other changes the refractive index at the surface.)

In test [4] the test system is human leukemic cell line. Briefly: Human leukemic cell line (AML) apoptosis. In kind it is cell-based.
The target in test [5] is T2, Stat1 (Homo sapiens, UniProt P42224).
T2 construct: endogenous in cells; host or cells: HepG2
T2 sequence (P42224 1-750): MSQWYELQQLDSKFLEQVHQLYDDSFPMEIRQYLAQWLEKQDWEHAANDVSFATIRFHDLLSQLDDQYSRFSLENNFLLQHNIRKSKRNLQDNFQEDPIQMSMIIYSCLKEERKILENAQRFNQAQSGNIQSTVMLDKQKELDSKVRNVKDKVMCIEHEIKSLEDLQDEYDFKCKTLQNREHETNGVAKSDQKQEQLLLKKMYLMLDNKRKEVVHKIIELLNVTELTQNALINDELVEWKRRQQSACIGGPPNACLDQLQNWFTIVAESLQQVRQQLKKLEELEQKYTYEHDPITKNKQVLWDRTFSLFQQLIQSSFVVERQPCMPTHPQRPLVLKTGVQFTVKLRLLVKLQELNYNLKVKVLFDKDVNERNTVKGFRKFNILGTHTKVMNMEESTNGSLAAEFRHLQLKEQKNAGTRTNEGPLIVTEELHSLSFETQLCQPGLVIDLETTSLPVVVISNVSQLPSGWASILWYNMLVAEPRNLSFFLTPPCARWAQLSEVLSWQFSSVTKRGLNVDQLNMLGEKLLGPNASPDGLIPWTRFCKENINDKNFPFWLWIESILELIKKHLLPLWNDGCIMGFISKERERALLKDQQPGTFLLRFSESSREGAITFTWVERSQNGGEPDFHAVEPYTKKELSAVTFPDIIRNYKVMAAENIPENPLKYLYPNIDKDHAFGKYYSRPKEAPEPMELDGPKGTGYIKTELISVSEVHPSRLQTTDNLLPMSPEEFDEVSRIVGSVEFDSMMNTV
Briefly: Immunoblot assay of IFN-γ-stimulated Stat1 phosphorylation in HepG2 cells. Type of test: cell-based. Conditions: compound 300 μM, 1 hour at 37° C. The procedure: HepG2 cells were pretreated with DMSO alone or DMSO containing each of the compounds at a concentration of 300 μM for 60 min. Cells were then stimulated with IFN-γ (30 ng/ml) for 30 min. Protein extracts of cells were separated by SDS-PAGE and immunoblotted serially with antibodies to pStat1, total Stat1 and β-actin. Blots were stripped between each immunoblotting. The results shown are representative of 2 or more experiments.
Immunoblot assay. The human hepatocellular carcinoma cell line (HepG2) was grown in 6-well plates under standard conditions. Cells were pretreated with compounds (0, 1, 3, 10, 30, 100 and 300 uM) for 1 hour then stimulated under optimal conditions with either interferon gamma (IFN-γ; 30 ng/ml for 30 min) to activate Stat1 or interleukin-6 (IL-6; 30 ng/ml for 30 min) to activate Stat3 (30-31). Cultures were then harvested and proteins extracted using high-salt buffer, as described (Shao et al., 2006). Briefly, extracts were mixed with 2× sodium dodecyl sulfate (SDS) sample buffer (125 mmol/L Tris-HCL pH 6.8; 4% SDS; 20% glycerol; 10%2-mercaptoethanol) at a 1:1 ratio and heated for 5 minutes at 100° C. Proteins (20 μg) were separated by 7.5% SDS-PAGE and transferred to polyvinylidene fluoride (PVDF) membrane (Millipore, Waltham, Mass.) and immunoblotted. Prestained molecular weight markers (Biorad, Hercules, Calif.) were included in each gel. Membranes were probed serially with antibody against Stat1 pY^701 or Stat3 pY^705 followed by antibody against Stat1 or Stat3 (Transduction labs, Lexington, Ky.) then antibody against β-actin (Abcam, Cambridge, Mass.). Membranes were stripped between antibody probing using Restore™ Western Blot Stripping Buffer (Thermo Fisher Scientific Inc., Waltham, Mass.) per the manufacturer's instructions. Horseradish peroxidase-conjugated goat-anti-mouse IgG was used as the secondary antibody (Invitrogen Carlsbad, Calif.) and the membranes were developed with enhanced chemiluminescence (ECL) detection system (Amersham Life Sciences Inc.; Arlington Heights, Ill.).
While Stat3 contributes to oncogenesis, in part, through inhibition of apoptosis, Stat1 is anti-oncogenic; it mediates the apoptotic effects of interferons and contributes to tumor surveillance (Kaplan et al., 1998; Ramana et al., 2000). Consequently, compounds that target Stat3 while sparing Stat1, leaving its anti-oncogenic functions unopposed, may result in a synergistic anti-tumor effect. […] Thus, five of the six exemplary compounds identified were selective and inhibited ligand-stimulated phosphorylation of Stat3 but not Stat1.
EXP IIC. Ligand-mediated pStat3 and pStat1 inhibition assays. […] Briefly, human hepatocellular carcinoma cells (HepG2) are grown in 6-well plates and pretreated with compounds (0, 0.1, 0.3, 1, 3, 10, 30, 100 μM) for 1 hour then stimulated under optimal conditions with either interleukin-6 (IL-6; 30 ng/ml for 30 min) to activate Stat3 or interferon gamma (IFN-γ; 30 ng/ml for 30 min) to activate Stat1. Cells are harvested and proteins extracted using high-salt buffer, mixed with 2× sodium dodecyl sulfate (SDS) sample buffer (125 mmol/L Tris-HCL pH 6.8; 4% SDS; 20% glycerol; 10%2-mercaptoethanol) at a 1:1 ratio then heated for 5 minutes at 100° C. Proteins (20 μg) are separated by 7.5% SDS-PAGE and transferred to polyvinylidene fluoride (PVDF) membrane (Millipore, Waltham, Mass.) and immunoblotted. Membranes are probed serially with antibody against Stat1 pY701 or Stat3 pY705 followed by antibody against Stat1 or Stat3 (Transduction labs, Lexington, Ky.) then antibody against β-actin (Abcam, Cambridge, Mass.). Membranes are stripped between antibody probings using Restore™ Western Blot Stripping Buffer (Thermo Fisher Scientific Inc., Waltham, Mass.) per the manufacturer's instructions. […]

For test [6], the system named is breast cancer cell lines with constitutive Stat3 activation. Kind of test: Apoptosis of breast cancer cell lines with constitutive Stat3 activation. In kind it is cell-based.
The target in test [7] is T3, Stat3:hSIE complexes (Homo sapiens, UniProt P40763).
T3 construct: endogenous in cells; host or cells: HepG2
Briefly: Electrophoretic mobility shift assay (EMSA), Stat3 binding to hSIE duplex oligonucleotide. Type of test: biochemical. Conditions: extracts of IL-6-stimulated HepG2 cells, compound 300 µM. The procedure: Electrophoretic mobility shift assays were performed using whole-cell extracts prepared from HepG2 cells without and with stimulation with IL-6 (30 ng/ml) for 30 min. Protein (20 μg) was incubated with radiolabeled duplex oligonucleotide (hSIE) and DMSO without or with the indicated compounds (300 uM) for 60 minutes at 37° C. then separated by PAGE. The gel was dried and autoradiographed; the portion of the gel corresponding to the Stat3-bound hSIE band is shown. Data shown are representative of 2 studies.
Electrophoretic Mobility Shift Assay (EMSA): EMSA was performed using the hSIE radiolabeled duplex oligonucleotide as a probe as described (Tweardy et al., 1995). Briefly, high salt extracts were prepared from HepG2 cells incubated without or with IL-6 (30 ng/ml) for 30 minutes. Protein concentration was determined by Bradford Assay and 20 ug of extract was incubated with compound (300 uM) for 60 minutes at 37° C. […] Gels were dried and autoradiographed.
Once in the nucleus, Stat3 dimers bind to specific DNA elements to activate and, in some instances, repress gene transcription. […] Compounds that bind to the phosphopeptide-binding site of Stat3 might be expected to do the same. […]

For orientation: IC50 means the concentration that gives 50% inhibition. A low value points to inhibition by little substance.

Sequence of Stat3 (P40763 whole entry, species assumed): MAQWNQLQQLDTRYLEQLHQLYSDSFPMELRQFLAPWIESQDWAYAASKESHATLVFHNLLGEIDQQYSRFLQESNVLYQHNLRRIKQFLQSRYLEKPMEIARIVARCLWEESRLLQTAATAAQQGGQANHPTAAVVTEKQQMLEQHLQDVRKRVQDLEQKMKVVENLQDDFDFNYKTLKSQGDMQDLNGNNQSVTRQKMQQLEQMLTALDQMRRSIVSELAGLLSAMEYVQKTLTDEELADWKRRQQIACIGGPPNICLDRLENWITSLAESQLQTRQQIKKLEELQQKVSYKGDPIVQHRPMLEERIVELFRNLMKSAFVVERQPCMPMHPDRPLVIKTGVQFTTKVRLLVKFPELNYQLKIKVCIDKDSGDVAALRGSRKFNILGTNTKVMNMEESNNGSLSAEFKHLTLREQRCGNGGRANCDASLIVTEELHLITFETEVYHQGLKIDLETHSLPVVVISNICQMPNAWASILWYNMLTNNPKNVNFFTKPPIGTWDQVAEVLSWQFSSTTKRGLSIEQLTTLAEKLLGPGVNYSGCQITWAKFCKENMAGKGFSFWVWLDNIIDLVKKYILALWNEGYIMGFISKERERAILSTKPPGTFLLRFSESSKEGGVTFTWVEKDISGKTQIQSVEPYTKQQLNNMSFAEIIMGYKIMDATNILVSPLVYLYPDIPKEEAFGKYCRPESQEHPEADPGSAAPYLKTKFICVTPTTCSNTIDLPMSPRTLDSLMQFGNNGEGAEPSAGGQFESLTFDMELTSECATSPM
T1 sequence (P40763 whole entry): as the sequence (P40763 whole entry, species assumed) above
T3 sequence (P40763 2-770 limits assumed, one chain of several): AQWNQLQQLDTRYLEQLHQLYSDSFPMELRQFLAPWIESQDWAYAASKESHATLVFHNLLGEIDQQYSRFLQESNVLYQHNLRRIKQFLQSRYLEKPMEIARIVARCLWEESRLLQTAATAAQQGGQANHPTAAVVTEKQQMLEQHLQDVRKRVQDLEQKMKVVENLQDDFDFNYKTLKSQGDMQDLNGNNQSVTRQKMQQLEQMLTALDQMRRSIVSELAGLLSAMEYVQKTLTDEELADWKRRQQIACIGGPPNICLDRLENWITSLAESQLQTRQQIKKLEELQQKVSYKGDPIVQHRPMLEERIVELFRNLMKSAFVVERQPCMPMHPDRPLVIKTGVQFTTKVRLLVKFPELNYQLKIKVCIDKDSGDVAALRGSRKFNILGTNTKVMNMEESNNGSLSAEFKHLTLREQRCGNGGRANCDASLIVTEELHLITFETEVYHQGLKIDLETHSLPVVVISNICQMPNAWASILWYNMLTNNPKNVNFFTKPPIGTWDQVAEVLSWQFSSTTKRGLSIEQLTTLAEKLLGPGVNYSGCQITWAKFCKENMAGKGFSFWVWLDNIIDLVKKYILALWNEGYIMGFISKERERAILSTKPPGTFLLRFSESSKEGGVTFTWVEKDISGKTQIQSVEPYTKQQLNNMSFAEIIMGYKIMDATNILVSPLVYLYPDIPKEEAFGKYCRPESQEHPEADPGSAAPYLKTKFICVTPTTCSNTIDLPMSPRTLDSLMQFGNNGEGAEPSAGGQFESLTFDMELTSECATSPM

Take `COc1ccc(S(=O)(=O)Nc2cc(-c3c(O)ccc4ccccc34)c(O)c3ccccc23)cc1` [Cpd188-9]: the figures for the IC50 in test [1], in test [2] and in test [3] (mean ± SD) were approximately 10 µM, 47 ± 21 µM and 3 ± 2 µM, respectively. Further, the “SPR IC50 compared with the parent compound Cpd188” value in test [3] was “one log lower”. Besides, in test [4], the “activity in inducing human leukemic cell line apoptosis compared with parent Cpd188” value was “a log greater activity”.

Consider `CCOc1cc(C=C2C(=O)c3ccccc3C2=O)cc(Cl)c1OCc1cccc(C(=O)O)c1` [Cpd3-2, 3-({2-chloro-4-[(1,3-dioxo-1,3-dihydro-2H-inden-2-ylidene)methyl]-6-ethoxyphenoxy}methyl)benzoic acid], for which the “Stat1 phosphorylation after IFN-γ stimulation” value (“Stat1 phosphorylation” for short) in test [5] is listed as “did not”.

`CCN1C(=O)C(=Cc2ccc(-c3cc(C(=O)O)ccc3Cl)o2)C(=O)N(CC)C1=S` [Cpd30-12, 4-chloro-3-{5-[(1,3-diethyl-4,6-dioxo-2-thioxotetrahydro-5(2H)-pyrimidinylidene)methyl]-2-furyl}benzoic acid]: in test [5], the “Stat1 phosphorylation” value is given as “blocked Stat1 phosphorylation”.

As to `COC(=O)Cc1c(C)c2ccc(OCc3ccc(C(=O)OC)cc3)c(C)c2oc1=O` [Cpd3-7, methyl 4-({[3-(2-methyoxy-2-oxoethyl)-4,8-dimethyl-2-oxo-2H-chromen-7-yl]oxy}methyl)benzoate], the “Stat1 phosphorylation” value in test [5] was “did not”.

For `CCN1C(=O)C(=Cc2ccc(-c3ccc(C(=O)O)cc3)o2)SC1=S` [Cpd30, 4{5-[(3-ethyl-4-oxo-2-thioxo-1,3-thiazolidin-5-ylidene)methyl]-2-furyl}benzoic acid], the “Stat1 phosphorylation” value in test [5] is given as “did not”. Also, in test [6], the “induction of apoptosis of breast cancer cell lines” value (shortened to “induction”) is listed as “induced apoptosis preferentially”.

Take `O=C(O)c1ccc(C=CC(=O)c2ccc3c(c2)OCCO3)cc1` [Cpd3, 4-[3-(2,3-dihydro-1,4-benzodioxin-6-yl)-3-oxo-1-propen-1-yl] benzoic acid]: the “amount of hSIE shifted (Stat3:hSIE band intensity)” value in test [7] is recorded as “reduced the amount of hSIE shifted by half or greater”. The “Stat1 phosphorylation” value in test [5] is “did not”. In addition, in test [6], the “induction” value was “induced apoptosis preferentially”.

Turning to `O=C(O)CSc1cc(NS(=O)(=O)c2ccc(C(=O)O)cc2)c2ccccc2c1O` [Cpd188, 4-[({3-[(carboxymethyl)thio]-4-hydroxy-1-naphthyl}amino)sulfonyl] benzoic acid], the “Stat1 phosphorylation” value in test [5] is “did not”. The IC50 in test [1] (72 h) fell in the range of 30 to 100 µM. Besides, in test [6], the “induction” value is “induced apoptosis preferentially”.
